From ChEMBL document CHEMBL1201862, “PubChem BioAssay data set” (2004)
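Compound exposure: 48 hours, 5 concentrations, 96-well plates. GI50 marks 50% less growth.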 Activity calls are given as the source filed them. Rule as the data show it: active = GI50 up to about 1.1 µM and inactive = higher.

Assays:
Test in all cases: growth of human tumour cells (NCI), 48 h
786-0 = tested on: 786-0
HCC 2998 = tested on: HCC 2998
HCT-15 = tested on: HCT-15
HT-29 = tested on: HT-29
IGROV-1 = tested on: IGROV-1
KM12 = tested on: KM12
Malme-3M = tested on: Malme-3M
NCI-H23 = tested on: NCI-H23
NCI-H460 = tested on: NCI-H460
OVCAR-8 = tested on: OVCAR-8
SF-295 = tested on: SF-295
SK-MEL-2 = tested on: SK-MEL-2
SK-MEL-5 = tested on: SK-MEL-5
SW-620 = tested on: SW-620
U-251 = tested on: U-251
A498 = tested on: A498

| SMILES | GI50 (786-0) | GI50 (HCC 2998) | GI50 (HCT-15) [µM] | GI50 (HT-29) | GI50 (IGROV-1) | GI50 (KM12) | GI50 (Malme-3M) | GI50 (NCI-H23) | GI50 (NCI-H460) | GI50 (OVCAR-8) | GI50 (SF-295) | GI50 (SK-MEL-2) | GI50 (SK-MEL-5) | GI50 (SW-620) | GI50 (U-251) | GI50 (A498) |
| --- | --- | --- | --- | --- | --- | --- | --- | --- | --- | --- | --- | --- | --- | --- | --- | --- |
| CCOC1=C2N=C(C(CC)c3ccc(F)cc3)N=C2C(=O)c2ccccc21 (stereo not given) | 29.9 µM (inactive) | 29.9 µM (inactive) | 18.6 | 19.2 µM (inactive) | 23.5 µM (inactive) | 21.9 µM (inactive) | 23.3 µM (inactive) | 25.3 µM (inactive) | 26.5 µM (inactive) | 30.5 µM (inactive) | 21 µM (inactive) | 18.7 µM (inactive) | 13.9 µM (inactive) | 36.4 µM (inactive) | 21.7 µM (inactive) |  |
| CCCCCC(=O)C(C)C1=Nc2nnc(CCCCCCCc3nnc4n3C(=O)C(C(C)C(=O)CCCCC)=N4)n2C1=O (stereo not given) | > 100 µM (inactive) | > 100 µM (inactive) | > 100 | > 100 µM (inactive) | > 100 µM (inactive) | > 100 µM (inactive) | > 100 µM (inactive) | > 100 µM (inactive) | > 100 µM (inactive) | > 100 µM (inactive) | > 100 µM (inactive) |  | > 100 µM (inactive) | > 100 µM (inactive) | > 100 µM (inactive) |  |
| CCOC(=O)c1[nH]c2c(OC)n[n+]([O-])cc2c1[N+](=O)[O-] | 16.4 µM (inactive) | 10 µM (inactive) | 18.4 | 15.9 µM (inactive) | 54.8 µM (inactive) | 15 µM (inactive) | 18.3 µM (inactive) | 10 µM (inactive) | 21.1 µM (inactive) | 19.9 µM (inactive) | 37.2 µM (inactive) | 19.8 µM (inactive) |  | 15.7 µM (inactive) | 17 µM (inactive) | 21.8 µM (inactive) |
| CCCN(CCC)C(=O)c1c([N+](=O)[O-])cc(C(F)(F)F)cc1[N+](=O)[O-] | 68.2 µM (inactive) |  | 27 | 32.5 µM (inactive) | 58.2 µM (inactive) | 46.1 µM (inactive) |  | 25.4 µM (inactive) | 37 µM (inactive) | 39.1 µM (inactive) | 34.4 µM (inactive) | 39.4 µM (inactive) |  | 27.7 µM (inactive) | 64.9 µM (inactive) | 75.7 µM (inactive) |
| O=C1[C@@H]2C(c3cccc([N+](=O)[O-])c3)=NO[C@@H]2C(=O)N1c1ccc(Cc2ccc(N3C(=O)[C@H]4C(c5cccc([N+](=O)[O-])c5)=NO[C@H]4C3=O)cc2)cc1 | 91 µM (inactive) |  | > 100 | > 100 µM (inactive) | > 100 µM (inactive) | > 10 µM (inactive) | > 100 µM (inactive) |  | > 100 µM (inactive) | > 10 µM (inactive) |  | > 100 µM (inactive) |  | > 100 µM (inactive) | > 10 µM (inactive) |  |
| Cc1ccc(S(=O)(=O)N/N=C2\CCCCC23CCC(=O)NC3)cc1 (stereo not given) | > 100 µM (inactive) | > 100 µM (inactive) | > 100 |  | > 100 µM (inactive) | > 100 µM (inactive) | > 100 µM (inactive) |  | > 100 µM (inactive) | > 100 µM (inactive) |  | > 100 µM (inactive) | > 100 µM (inactive) | > 100 µM (inactive) | > 100 µM (inactive) | > 100 µM (inactive) |
| COc1ccc(C2=NC(CO)[C@H](c3ccccc3)O2)cc1OC (stereo not given in full) | > 100 µM (inactive) | > 100 µM (inactive) | > 100 | > 100 µM (inactive) | > 100 µM (inactive) | > 100 µM (inactive) | > 100 µM (inactive) |  | > 100 µM (inactive) | > 100 µM (inactive) | > 100 µM (inactive) | > 100 µM (inactive) | > 100 µM (inactive) | > 100 µM (inactive) |  | > 100 µM (inactive) |
